Source: publication PMC6368337, “GluClR-mediated inhibitory postsynaptic currents reveal targets for ivermectin and potential mechanisms of ivermectin resistance” (PLoS Pathogens, 2019)

How the values were obtained:
Assay type in all cases: cell-based, H. contortus
α GluClRs = assay: IPSC recording in HEK293-neuron heteroculture, α GluClRs; settings: 5 nM IVM
Procedure: (§1) cDNAs encoding the α (avr-14b) (pcDNA 3.1+) or β (pUNIV) GluClR subunits of H. contortus were nuclear injected into oocytes (NASCO, WI USA) or transfected into HEK293AD cells (CellBank Australia) using a calcium phosphate-DNA co-precipitate method. Synapse formation between neurons and HEK293 cells was promoted by co-transfecting neuroligin 2A or 1B and the cDNA encoding CD4 surface antigen was also added to the transfection mixture so as to identify transfected cells. The oocytes and HEK cells were used for experiments 2–3 days after the introduction of the cDNAs. All experiments were done at room temperature (22 ± 1°C).
(§2) Primary neuronal cultures were prepared from cortices of E18 rat embryos, (University of Queensland Biological Services), which were triturated and plated at 100,000 cells per 18-mm poly-D-lysine-coated coverslip in DMEM with 10% fetal bovine serum. After 24 h the entire medium was replaced with Neurobasal medium that included 2% B27 and 1% GlutaMAX supplements. After one week half of this medium was replaced and the neurons were allowed to grow in vitro for 3–5 weeks before introducing the transfected HEK293 cells. Recordings of synaptic currents were done in whole-cell configuration at ‐70 mV using an Axopatch 200B amplifier (Molecular Devices), filtered at 5 kHz and digitized at 20 kHz using Clampex (pClamp 10 suite, Molecular Devices) via a Digidata 1440A digitizer.

α and αβ (1:1) GluClRs = assay: IVM-induced tonic current in heteroculture, α and αβ data pooled; settings: continuous 5 nM IVM
Procedure: After validating the heterocultures as a reliable preparation for investigating IPSCs mediated by GluClRs, we made synaptic recordings while continuously applying IVM (5 nM) to cells similarly transfected with α and αβ GluClRs. […] Firstly, there was a steady downward deflection in baseline current over the course of the recording that was not different between cells expressing α (Fig 5A) and αβ (1:1, Fig 5B) GluClRs. […] Changes to the kinetic properties of IPSCs were also observed upon IVM application (Fig 5C–5G). These were analysed 15 minutes after the commencement of the IVM application to ensure that the effects had equilibrated. […] The decay time constant for α GluClRs slowed from 40 ± 2 ms to 100 ± 3 ms (n = 6) and for αβ GluClRs from 17 ± 2 ms to 72 ± 4 ms (n = 6, Fig 5E). The increase in activation times were from 4.6 ± 0.7 ms to 19 ± 1 ms for α GluClRs and from 3.0 ± 0.3 ms to 10 ± 1 ms for the αβ heteromers (Fig 5F). […] A comparison of the magnitude changes of IPSC parameters was also made between the two receptor isoforms.
cDNAs encoding the α (avr-14b) (pcDNA 3.1+) or β (pUNIV) GluClR subunits of H. contortus were nuclear injected into oocytes (NASCO, WI USA) or transfected into HEK293AD cells (CellBank Australia) using a calcium phosphate-DNA co-precipitate method. […]

αβ (1:1) GluClRs [1] = biological target: T1, αβ (1:1) GluClRs (Haemonchus contortus, UniProt O46124+P91730); assay: IPSC recording in HEK293-neuron heteroculture, αβ (1:1) GluClRs; settings: 5 nM IVM
T1 sequence (P91730 19-432): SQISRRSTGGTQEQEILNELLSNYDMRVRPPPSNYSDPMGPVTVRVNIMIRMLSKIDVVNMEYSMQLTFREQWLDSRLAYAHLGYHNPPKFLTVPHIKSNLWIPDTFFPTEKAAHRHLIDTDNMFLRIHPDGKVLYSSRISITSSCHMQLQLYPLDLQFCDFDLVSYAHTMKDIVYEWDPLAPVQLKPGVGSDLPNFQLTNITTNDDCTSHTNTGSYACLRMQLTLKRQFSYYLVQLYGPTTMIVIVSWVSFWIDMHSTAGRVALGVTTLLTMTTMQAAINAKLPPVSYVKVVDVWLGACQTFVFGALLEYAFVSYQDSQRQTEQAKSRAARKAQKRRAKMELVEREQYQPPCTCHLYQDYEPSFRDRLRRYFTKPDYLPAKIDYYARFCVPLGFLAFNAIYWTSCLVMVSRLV
T1 sequence (O46124 entry or part of it): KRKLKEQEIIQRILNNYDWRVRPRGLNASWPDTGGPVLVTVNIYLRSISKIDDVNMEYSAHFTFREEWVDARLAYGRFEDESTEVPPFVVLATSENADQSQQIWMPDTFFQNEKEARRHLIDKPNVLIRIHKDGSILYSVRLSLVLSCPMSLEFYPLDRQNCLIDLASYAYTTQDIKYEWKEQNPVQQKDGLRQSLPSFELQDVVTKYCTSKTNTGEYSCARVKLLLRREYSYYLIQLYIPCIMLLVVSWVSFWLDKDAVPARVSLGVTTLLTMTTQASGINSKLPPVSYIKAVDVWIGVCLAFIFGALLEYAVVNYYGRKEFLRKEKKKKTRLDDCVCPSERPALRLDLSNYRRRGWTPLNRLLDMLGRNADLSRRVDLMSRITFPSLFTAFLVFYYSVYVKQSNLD
Procedure: as §1, §2

αβ (1:1) GluClRs [2] = biological target: T1, αβ (1:1) GluClRs; assay: Two-electrode voltage clamp in oocytes, αβ (1:1) GluClRs
Procedure: as §1
Xenopus laevis oocytes were harvested by surgical incision. The oocytes were then defolliculated with 1.5 mg/ml collagenase for 2 hours. Free oocytes were rinsed with calcium-free OR-2 solution containing (in mM) 82.5 NaCl, 2 KCl, 1 MgCl2, 5 HEPES, pH 7.4 and mature stage V or VI oocytes were isolated for experiments. The DNAs coding for α and β subunits were nuclear injected into the oocytes using a Nanoliter 2000 microinjector (WPI Inc) at a ratio of (α:β), 1:0, 0:1, 1:1 and 1:50. The total amount of injected DNA in all combinations was 400 ng ml^−1, including the 1:50 (α:β) combination (8 ng of DNA encoding the α and 392 ng of DNA encoding β subunits). Injected oocytes were incubated in ND96 storage solution (in mM) 96 NaCl, 2 KCl, 1 MgCl2.6H2O, 1.8 CaCl2, 5 HEPES, 50 μg ml^−1 gentamicin, 2.5 sodium pyruvate, 0.5 theophylline, pH 7.4 at 16°C for 2–3 days before experiment.
For the two-electrode voltage clamp recordings, each oocyte was secured in a cell bath that was continually perfused with ND96 recording solution (ND96 storage solution without pyruvate, theophylline and gentamicin). […] The two microelectrodes contained 3 M KCl and had resistances of 0.2–2 MΩ. Recordings were done using Clampex 10.2 software (Molecular Devices) at a clamped voltage of −40 mV. Currents were low-pass filtered at 200 Hz, sampled at 2 kHz using a Gene Clamp 500B amplifier and digitised by a Digidata 1440A interface. The IVM (IVM B1a) concentration-response experiments were standardised by using an application protocol that consisted of applying increasing concentrations of IVM for, respectively, 3 min, 3 min, 3 min, 2 min, 1 min, 1 min and 0.5 min.
Group data were analysed in SigmaPlot 13.0 using one-way ANOVAs, where p < 0.05 was taken as the significance threshold and expressed as mean ± SEM. Tests for normally distributed data are built into the SigmaPlot software. Confocal images were captured and analysed with Zen 2012 SP2 (Zeiss) software. Oocyte concentration-response data were fit to a Hill equation to obtain an EC50 and Hill co-efficient for each oocyte recording. […] Single channel recordings were analysed in QuB software. […]

[3] = 15 minutes after start of application, −70 mV

In the case of `CC[C@H](C)[C@H]1O[C@]2(CC[C@@H]1C)C[C@@H]1C[C@@H](C/C=C(\C)[C@@H](O[C@H]3C[C@H](OC)[C@@H](O[C@H]4C[C@H](OC)[C@@H](O)[C@H](C)O4)[C@H](C)O3)[C@@H](C)/C=C/C=C3\CO[C@@H]4[C@H](O)C(C)=C[C@@H](C(=O)O1)[C@]34O)O2` [IVM, Ivermectin], the “IPSC activation (10–90% rise) time” value (α GluClRs; 15 minutes) is reported as 19 ± 1 ms, the “peak IPSC amplitude” value (α GluClRs; 15 minutes) is reported as 122 ± 39 pA and the “IPSC decay time constant” value (α GluClRs; [3]) is reported as 100 ± 3 ms. The “tonic current fitted time constant” value (α and αβ (1:1) GluClRs) was 483 ± 72 s, the “tonic current mean amplitude” value (α and αβ (1:1) GluClRs) was 304 ± 54 pA and the “IPSC activation (10–90% rise) time” value (αβ (1:1) GluClRs [1]; 15 minutes) was 10 ± 1 ms. For the same molecule, the “peak IPSC amplitude” value (αβ (1:1) GluClRs [1]; 15 minutes) was 124 ± 18 pA, the “IPSC decay time constant” value (αβ (1:1) GluClRs [1]; [3]) was 72 ± 4 ms and the EC50 (αβ (1:1) GluClRs [2]; EC50, oocytes, cDNA injection ratio α:β 1:1, −40 mV) was 86 ± 14 nM. It also gave a Hill co-efficient (αβ (1:1) GluClRs [2]; oocytes, α:β 1:1, −40 mV) of 1.0 ± 0.1 and an Emax (αβ (1:1) GluClRs [2]; read-out: maximal response, % of saturating glutamate response) of 26%.
